This is an account of results in patent publication US20120039981A1, “Chewing Gum And Particulate Material For Controlled Release Of Active Ingredients” (priority 2009, published 2012).

Read-outs that look alike come from different tables or passages of the source.

The text on this data set: Absorption of nicotine from the oral cavity to the systemic circulation is dependent on the pH of the saliva and the […] of nicotine, which is about 7.8. Assuming a pH of the saliva of 6.8 only about 10% of the nicotine in saliva will be in the free base form. Thus, in order to promote absorption of nicotine in a free base form, which is the form predomi-nantly absorbed through the mucosa, the pH of the saliva must be increased. At a pH of 8.8 about 90% of the nicotine in saliva will then be in the free base form.

For the compound `CN1CCCC1c1cccnc1` (centres unmarked) [nicotine, 3-(1-methyl-2-pyrrolidinyl)-pyridine], the “nicotine in saliva in the free base form” value runs as follows: (saliva pH 6.8) “about 10%”; (saliva pH 8.8) “about 90%”.
